From patent publication US20260345647A1, “AST-3424 COMBINATION FOR TREATING LEUKEMIA AND LYMPHOMA” (ASCENTAWITS PHARMACEUTICALS, LTD., priority 2022, published 2026)
Entries after “also recorded” stand apart in the source; their conditions may differ. Counter-ions that a name gives are not always drawn. Like-named read-outs stand apart in the source and are kept apart here.

Assays:
[1] = tested on: TGF-β signaling pathway; settings: cited from earlier work
[2] = tested on: liver cancer cells; settings: flow cytometry; cited from earlier work
[3] = tested on: cancer cells; settings: cited from earlier work
[4] = tested on: CCRF-CEM cells; test: In vitro cell proliferation assay, monotherapy (CellTiter-Glo); assay type: cell-based; settings: Homo sapiens
Procedure: (§1) On day 1, cells were seeded in 96-well cell culture plates (at 180 μL/well).
(§2) On day 2, 20 μL of a 10-fold test concentration of the working solution of the compound (AST-3424) was added. The cell plates were gently agitated, and were then placed in an incubator at 37 °C for further culture.
(§3) On day 3, 20 μL of a 10-fold test concentration of the solution of the compound (cytarabine and daunorubicin) was added. The cell plates were gently agitated, and were then placed in an incubator at 37 °C for further 72 hours.
(§4) After incubation, to the cell plates was added a reagent prepared according to the Protocol for a […] CellTiter-Glo Reagent (50 μL/well). The plates were thoroughly agitated and were then incubated at room temperature in the dark for 10 minutes.
(§5) The cell plates were placed in a plate reader for analysis to detect chemiluminescence and record the data.
(§6) The readings in each well should be converted into cell viability, which was calculated by the following formula:
(§7) • 1. MOLT-4 and MOLT-3 were derived from a patient with acute lymphoblastic leukemia in relapse who had previously received polydrug combination chemotherapy. The MOLT-4 cell line was originated from T lymphocytes, wherein there is a G→A mutation in Codon 248 of the p53 gene with no expression of p53, immunoglobulin or Epstein-Barr virus, resulting in high levels of terminal deoxyribosyl transferase, and expression of CD1 (49%), CD2 (35%), CD3 A (26%) B (33%) C (34%), CD4 (55%), CD5 (72%), CD6 (22%), and CD7 (77%). The cell is a human acute lymphoblastic leukemia cell, and the corresponding disease is human T-cell acute lymphoblastic leukemia, or T-ALL. • 2. PF-382 is a human T-cell acute lymphoblastic leukemia cell, and the corresponding disease is human T-cell acute lymphoblastic leukemia, or T-ALL. • 3. Jurkat, Clone E6-1 is a clone of the Jurkat-FHCRC cell line, a derivative of the Jurkat cell line, which was established from the peripheral blood of a patient suffering from T-cell acute leukemia. It is a human T lymphocytic leukemia cell, and the corresponding disease is T-ALL. • 4. SUP-T1 is a human T lymphoblastoma cell, and the corresponding disease is T-cell Lymphoblastic Lymphoma (T-LBL). • 5. CCRF-CEM is a human acute lymphoblastic leukemia, T lymphocyte serum culture cell, which was obtained in November 1964 from the peripheral blood leukocytes of a patient suffering from acute lymphoblastic leukemia. The cell is a human T-cell acute lymphoblastic leukemia cell, and the corresponding disease is T-cell acute lymphoblastic leukemia, or T-ALL.

[5] = tested on: MOLT-4 cells; test: as above; assay type: cell-based; settings: Homo sapiens
Procedure: as §1, §2, §3, §4, §5, §6, §7

[6] = tested on: Jurkat, Clone E6-1 cells; test: as above; assay type: cell-based; settings: Homo sapiens
Procedure: as §1, §2, §3, §4, §5, §6, §7

[7] = tested on: PF-382 cells; test: as above; assay type: cell-based; settings: Homo sapiens
Procedure: as §1, §2, §3, §4, §5, §6, §7

[8] = tested on: SUP-T1 cells; test: as above; assay type: cell-based; settings: Homo sapiens
Procedure: as §1, §2, §3, §4, §5, §6, §7

[9] = tested on: HepG2; settings: HepG2, high AKR1C3 expression; cited from earlier work
[10] = tested on: tumor cells; settings: Transwell; MMP-9; cited from earlier work
[11] = tested on: PLC/PRF/5; settings: PLC/PRF/5, high AKR1C3 expression; cited from earlier work
[12] = tested on: liver cancer cells; settings: flow cytometry; Bax, Caspase3, PARP; cited from earlier work
[13] = tested on: CCRF-CEM cells; test: In vitro cell proliferation assay, combination therapy (CellTiter-Glo); assay type: cell-based, human; settings: 0.1 nM and 1 nM AST-3424
Procedure: as §1
(§8) On day 2, 10 μL of a 20-fold test concentration of the AST-3424 solution (20-fold concentration of either of the two concentrations IC25 and IC10) was added. The cell plates were gently agitated, and were then placed in an incubator at 37 °C for further culture.
(§9) On day 3, to the combination therapy wells was added 10 μL of a 20-fold test concentration of the compound (cytarabine or daunorubicin) (20-fold concentration of each of the three concentrations IC50, IC25, and ICs), and to the monotherapy wells was added 10 μL of a culture medium containing 2% DMSO. The cell plates were gently agitated, and were then placed in an incubator at 37 °C for further 72 h.
(§10) After incubation, a reagent prepared according to the instructions for the CellTiter-Glo Reagent was added (at 50 μL/well). The cell plates were agitated thoroughly and were then incubated at room temperature in the dark for 10 minutes.
(§11) The cell plate was placed in a plate reader for analysis to detect chemiluminescence and record the data.
(§12) The readings in each well should be converted into cell viability, which was calculated by the formula as described in section 1.1.
(§13) The final viability percentages under different conditions were plotted into column charts.

[14] = tested on: MOLT-4 cells; test: as above; assay type: cell-based, human
Procedure: as §1, §8, §9, §10, §11, §12, §13

[15] = tested on: Jurkat, Clone E6-1 cells; test: as above; assay type: cell-based, human; settings: 0.64 nM and 16 nM AST-3424
Procedure: as §1, §8, §9, §10, §11, §12, §13

[16] = tested on: PF-382 cells; test: as above; assay type: cell-based, human; settings: 0.64 and 2.5 nM AST-3424
Procedure: as §1, §8, §9, §10, §11, §12, §13

[17] = tested on: SUP-T1 cells; test: as above; assay type: cell-based, human; settings: 0.13 nM and 1 nM AST-3424
Procedure: as §1, §8, §9, §10, §11, §12, §13

[18] = tested on: five cell lines including CCRF-CEM, PF-382, Jurkat, Clone E6-1, SUP-T1, and MOLT-4; test: In vitro cell proliferation assay, monotherapy, summary over five cell lines; assay type: cell-based, human; settings: for inhibitory effects on cell proliferation: monotherapy, five cell lines
Procedure: as §1, §2, §3, §4, §5, §6, §7

[19] = Clinical plasma concentration (dose comparison and conversion); assay type: in vivo
Text: Both daunorubicin and cytarabine are drugs used in clinical practice to treat leukemia or other tumors.

[20] = cited from earlier work
[21] = tested on: acute lymphoblastic leukemia; settings: cited from earlier work
[22] = tested on: neuroblastoma and rhabdomyosarcoma; settings: cited from earlier work
[23] = experiments that were conducted previously, read-out: IC50 (superscript 2)
[24] = monotherapy, 72 hours, read-out: IC50

C[C@H](OP(=O)(N1CC1)N1CC1)c1ccc([N+](=O)[O-])c(Oc2cccc(C(=O)N(C)C)c2)c1 [AST-3424]
effect on TGF-β signaling pathway / proliferation [1]: could reduce the proliferation effect by inhibiting the TGF-β signaling pathway
cell cycle block [2]: could block the cells in the S phase
toxicity to cancer cells ([3]; AST-3424 itself (prodrug)): low toxicity to cancer cells
dependence of potency on AKR1C3 expression level ([3]; animal models and in vitro pharmacological experiments): dependent on the level of AKR1C3 expression; also recorded: positively correlated with AKR1C3 expression levels
IC50 [4, 23]: 14.9 nM
IC50 [4, 24]: 3.68 nM
IC50 [5, 23]: 10 nM
IC50 [5, 24]: 8.04 nM
IC50 [6, 23]: 24 nM
IC50 [6, 24]: 4620 nM
IC50 [7, 23]: 3 nM
IC50 [7, 24]: 4.09 nM
IC50 [8, 23]: 3.7 nM
IC50 [8, 24]: 2.47 nM
inhibitory effects [9]: excellent inhibitory effects
migration and invasion of tumor cells [10]: could inhibit the migration and invasion of tumor cells
inhibitory effects [11]: excellent inhibitory effects
apoptosis induction [12]: may induce apoptosis by upregulating Bax and Caspase3 proteins and downregulating the PARP protein
effect on proliferation, AST-3424 monotherapy [13]: no effect
effect on proliferation, AST-3424 monotherapy ([14]; 3.2 nM and 6.4 nM AST-3424): no significant effect
effect on proliferation, AST-3424 monotherapy [15]: no significant effect
effect on proliferation, AST-3424 monotherapy [16]: no significant effect
effect on proliferation, AST-3424 monotherapy [17]: no effect
in vitro cytotoxicity compared with daunorubicin and cytarabine ([18]; four cell lines except Jurkat, Clone E6-1): superior to that of daunorubicin and cytarabine
inhibitory effects on cell proliferation [18]: good inhibitory effects

COc1cccc2c1C(=O)c1c(O)c3c(c(O)c1C2=O)C[C@@](O)(C(C)=O)C[C@@H]3O[C@H]1C[C@H](N)[C@H](O)[C@H](C)O1 [Daunorubicin hydrochloride, daunorubicin hydrochloride, reference compound]
IC50 [4, 24]: 30.7 nM
IC50 [5, 24]: 24.2 nM
IC50 [6, 24]: 41 nM
IC50 [7, 24]: 14.2 nM
IC50 [8, 24]: 30.6 nM

Nc1ccn([C@@H]2O[C@H](CO)[C@@H](O)[C@@H]2O)c(=O)n1 [Cytarabine, cytarabine, reference compound]
concentration ([19]; 1.8-3 g/m^2, administration with 12 times, converted from steady concentration, read-out: Molar concentration after conversion (steady concentration)): 32 to 97 µM
IC50 [4, 24]: 82.2 nM
IC50 [5, 24]: 120 nM
IC50 [6, 24]: 100 nM
IC50 [7, 24]: 26.4 nM
IC50 [8, 24]: 856 nM
Steady plasma concentration ([20]; 1.8-3 g/m^2, administration with 12 times, steady concentration): 8 to 24 µg/mL
inhibitory effects on cell proliferation [18]: good inhibitory effects

COc1cccc2c1C(=O)c1c(O)c3c(c(O)c1C2=O)C[C@@](O)(C(C)=O)C[C@@H]3O[C@H]1C[C@H](N)[C@H](O)[C@H](C)O1 [daunorubicin]
remission rate ([21]; acute lymphoblastic leukemia): high remission rate
side effects ([21]; clinical use): severe side effects
Cmax ([19]; human, plasma, 44 mg/m^2, administration on day 1, 3, 5, converted from Cmax, read-out: Molar concentration after conversion (Cmax)): 49 µM
Plasma Cmax ([20]; 44 mg/m^2, administration on day 1, 3, 5, Cmax): 26000 ng/mL
therapeutic effects [22]: excellent therapeutic effects
potency on cell proliferation, daunorubicin ([14]; 40 nM daunorubicin): very significant potency
inhibitory effects on cell proliferation [18]: good inhibitory effects
